Laboratory results reported in ChEMBL document CHEMBL5214887, “Dispirotripiperazine-core compounds, their biological activity with a focus on broad antiviral property, and perspectives in drug design (mini-review)” (Eur J Med Chem, 2021).

Key:
Human alphaherpesvirus 1 [1] = assay: Antiviral activity against HSV-1 infected in African green monkey GMK-AH-1 cells assessed as viral growth inhibition incubated for 73 hrs by crystal violet staining assay; type: functional, organism-based; conditions: Human alphaherpesvirus 1, 73 h
[2] = […] in herpetic encephalitis mouse model assessed as reduction in mortality at 250 mg/kg,po bid for 5 days; type: organism-based; parameters: scale not given: the % may be the effect or the level left; conditions: in vivo, 120 h, time 5 day
[3] = Toxicity in mouse assessed as lethal dose at ip as single dose; type: organism-based; conditions: in vivo
Human alphaherpesvirus 1 [4] = assay: Antiviral activity against HSV-1 assessed as viral growth inhibition; type: functional, organism-based
Deltapapillomavirus 4 = assay: Antiviral activity against BPV1 infected in human HEK293T cells assessed as viral growth inhibition incubated for 72 hrs by green fluorescent protein based method; type: functional, organism-based; conditions: Deltapapillomavirus 4, HEK-293T
Human alphaherpesvirus 2 = assay: Antiviral activity against HSV-2 infected in African green monkey GMK-AH-1 cells assessed as viral growth inhibition incubated for 73 hrs; type: functional, organism-based; conditions: Human alphaherpesvirus 2, 73 h
[5] = test system: Human immunodeficiency virus 1; assay: Antiviral activity against HIV-1 assessed as viral growth inhibition; type: functional, organism-based
[6] = test system: Respiratory syncytial virus; assay: Antiviral activity against RSV assessed as viral growth inhibition; type: functional, organism-based; conditions: human respiratory syncytial virus
[7] = test system: Human papillomavirus type 16; assay: Antiviral activity against HPV16 infected in human HEK293T cells assessed as viral growth inhibition incubated for 72 hrs by green fluorescent protein based method; type: functional, organism-based; conditions: Human papillomavirus 16, HEK-293T
[8] = Antiviral activity against HPV18 infected in human HEK293T cells assessed as viral growth inhibition incubated for 72 hrs by green fluorescent protein based method; type: functional, cell-based; conditions: human papillomavirus 18, HEK-293T
[9] = test system: Human immunodeficiency virus; assay: Antiviral activity against HIV assessed as viral growth inhibition; type: functional, organism-based; conditions: Human immunodeficiency virus 1
Human betaherpesvirus 5 [10] = assay: Antiviral activity against ganciclovir sensitive HCMV infected in human HELF cells assessed as viral growth inhibition incubated for 8 days; type: functional, organism-based; conditions: Human betaherpesvirus 5, HELF, 192 h
Human betaherpesvirus 5 [11] = assay: Antiviral activity against ganciclovir resistant HCMV infected in human HELF cells assessed as viral growth inhibition incubated for 8 days; type: functional, organism-based; conditions: Human betaherpesvirus 5, HELF, 192 h
Lyssavirus rabies = assay: Antiviral activity against radiolabeled Rabies virus infected in bovine MDBK cell at 80 ug/ml incubated for 4 hrs by attachment assay based liquid scintillation counting analysis; type: functional; conditions: dose 80 µg/ml
Human alphaherpesvirus 1 [12] = assay: Antiviral activity against acyclovir resistant HSV-1 infected in African green monkey GMK-AH-1 cells assessed as viral growth inhibition incubated for 73 hrs; type: functional, organism-based; conditions: Human alphaherpesvirus 1, 73 h

Work on `Cc1nc(N2CC[N+]3(CC2)CC[N+]2(CCNCC2)CC3)c([N+](=O)[O-])c(N2CC[N+]3(CC2)CC[N+]2(CCNCC2)CC3)n1` yielded an IC50 (Human alphaherpesvirus 1 [1]) of 1480 nM.

In the case of `O=C(CCBr)N1CC[N+]2(CC1)CC[N+]1(CCN(C(=O)CCBr)CC1)CC2.[Cl-].[Cl-]` [DIBROSPIDIUM CHLORIDE], the Activity [2] is reported as 35%, the LD50 [3] is reported as 1920 mg/kg and the IC50 (Human alphaherpesvirus 1 [4]) is reported as 66100 nM.

Work on `OC(CCl)CN1CC[N+]2(CC1)CC[N+]1(CCN(CC(O)CCl)CC1)CC2.[Cl-].[Cl-]` (configuration not stated) [PROSPIDIUM CHLORIDE] yielded an LD50 [3] of 100 mg/kg and an IC50 (Human alphaherpesvirus 1 [4]) of 62500 nM.

With `Cc1nc(N2CC[N+]3(CCC[N+]4(CCNCC4)CC3)CC2)c([N+](=O)[O-])c(N2CC[N+]3(CCC[N+]4(CCNCC4)CC3)CC2)n1` the IC50 (Human alphaherpesvirus 1 [4]) was 1120 nM.

In the case of `Cl.Cl.[O-][n+]1onc2ncnc(N3CC[N+]4(CC3)CC[N+]3(CCN(c5ncnc6no[n+]([O-])c56)CC3)CC4)c21`, the IC50 (Deltapapillomavirus 4) is reported as 2600 nM, the IC50 (Human alphaherpesvirus 2) is reported as 10200 nM and the IC50 [5] is reported as 150000 nM. It also gave an IC50 [6] of 7500 nM, an IC50 [7] of 1400 nM and an IC50 [8] of 700 nM. For the same compound, the IC50 [9] was 1400 nM, the IC50 (Human betaherpesvirus 5 [10]) was 150 nM and the IC50 (Human betaherpesvirus 5 [11]) was 150 nM. The Activity (Lyssavirus rabies) was 95% and the IC50 (Human alphaherpesvirus 1 [12]) was 8100 nM.

In the case of `O=C(CCCl)N1CC[N+]2(CC1)CC[N+]1(CCN(C(=O)CCCl)CC1)CC2.[Cl-].[Cl-]`, the Activity [2] is reported as 35%.

Compound `Cc1nc(N2CCC[N+]3(CC2)CC[N+]2(CCCNCC2)CC3)c([N+](=O)[O-])c(N2CCC[N+]3(CC2)CC[N+]2(CCCNCC2)CC3)n1` (configuration not stated) has an IC50 [6] of over 100000 nM, an IC50 [9] of 4000 nM and an IC50 (Human alphaherpesvirus 1 [4]) of 1970 nM.
